Measured values: patent US20060135522A1, “Tricyclic delta-opioid modulators” (priority 2004, published 2006)
Where two headings read alike, the source gives them in different places.

Tests used:
delta opioid receptor = target: T1, delta opioid receptor (Rattus norvegicus, UniProt P33533); assay: Rat Brain Delta Opioid Receptor Binding Assay
T1 construct: from tissue; host or cells: forebrain of male Wistar rats (particulate membrane preparation)
Experimental: Procedure: Male, Wistar rats (150-250 g, VAF, Charles River, Kingston, N.Y.) were killed by CO2, and their brains were removed and placed immediately in ice cold Tris HCl buffer (50 mM, pH 7.4). The forebrains were separated from the remainder of the brain by a coronal transection, beginning dorsally at the colliculi and passing ventrally through the midbrain-pontine junction. After dissection, the forebrains were homogenized in Tris buffer in a Teflon®-glass homogenizer. The homogenate was diluted to a concentration of 1 g of forebrain tissue per 80 mL Tris and centrifuged at 39,000×g for 10 min. The pellet was resuspended in the same volume of Tris buffer containing 5 mM MgCl2 with several brief pulses from a Polytron homogenizer. This particulate preparation was used for the delta opioid binding assays. Following incubation with the delta selective peptide ligand ˜4 nM [^3H]DPDPE or 0.15 nM [^3H]naltrindole at 25° C. for 2.5 h in a 96-well plate with total volume of […], the plate contents were filtered through Wallac filtermat B sheets on a Tomtec 96-well harvester. The filters were rinsed three times with 2 mL of 10 mM HEPES (pH 7.4), and dried in a 650 W microwave oven for 1.75 min twice. To each sample area 2×50 μL of Betaplate Scint scintillation fluid (LKB) was added and the radioactivity was quantified on a LKB (Wallac) 1205 BetaPlate liquid scintillation counter.
(§1) Analysis: The data from the scintillation counter was used to calculate either the % inhibition compared to control binding (when only a single concentration of test compound was evaluated) or a Ki value (when a range of concentrations was tested). Percent inhibition was calculated as: [(total dpm-test compound dpm)/(total dpm-nonspecific dpm)]*100. Kd and Ki values were calculated using GraphPad PRISM data analysis program.

mu opioid receptor = target: T2, mu opioid receptor (Rattus norvegicus, UniProt P33535); assay: Rat Brain Mu Opioid Receptor Binding Assay
T2 construct: from tissue; host or cells: forebrain of male Wistar rats (particulate membrane preparation)
Experimental: Procedure: Male, Wistar rats (150-250 g, VAF, Charles River, Kingston, N.Y.) were killed by CO2, and their brains were removed and placed immediately in ice cold Tris HCl buffer (50 mM, pH 7.4). The forebrains were separated from the remainder of the brain by a coronal transection, beginning dorsally at the colliculi and passing ventrally through the midbrain-pontine junction. After dissection, the forebrains were homogenized in Tris buffer in a Teflon®-glass homogenizer. The homogenate was diluted to a concentration of 1 g of forebrain tissue per 80 mL Tris and centrifuged at 39,000×g for 10 min. The pellet was resuspended in the same volume of Tris buffer containing 5 mM MgCl2 with several brief pulses from a Polytron homogenizer. This particulate preparation was used for the mu opioid binding assays.
as §1

[1] = rat forebrain membranes, [3H]DPDPE or [3H]naltrindole, 25° C., 2.5 h, read-out: delta (Ki)
[2] = rat forebrain membranes, [3H]DAMGO, 25° C., 2.5 h, read-out: mu (Ki)

T2 sequence (P33535 whole entry): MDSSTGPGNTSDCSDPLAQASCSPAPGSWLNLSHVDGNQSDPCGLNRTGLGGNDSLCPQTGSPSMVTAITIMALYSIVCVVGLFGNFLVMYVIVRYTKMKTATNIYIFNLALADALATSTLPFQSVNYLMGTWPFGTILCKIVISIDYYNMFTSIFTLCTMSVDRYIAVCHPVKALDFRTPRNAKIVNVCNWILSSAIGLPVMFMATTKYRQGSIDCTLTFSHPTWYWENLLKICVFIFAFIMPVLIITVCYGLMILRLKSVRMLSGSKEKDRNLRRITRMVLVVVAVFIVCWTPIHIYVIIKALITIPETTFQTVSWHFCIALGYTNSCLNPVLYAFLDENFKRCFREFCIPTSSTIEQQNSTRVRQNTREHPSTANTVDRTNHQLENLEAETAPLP
T1 sequence (P33533 whole entry): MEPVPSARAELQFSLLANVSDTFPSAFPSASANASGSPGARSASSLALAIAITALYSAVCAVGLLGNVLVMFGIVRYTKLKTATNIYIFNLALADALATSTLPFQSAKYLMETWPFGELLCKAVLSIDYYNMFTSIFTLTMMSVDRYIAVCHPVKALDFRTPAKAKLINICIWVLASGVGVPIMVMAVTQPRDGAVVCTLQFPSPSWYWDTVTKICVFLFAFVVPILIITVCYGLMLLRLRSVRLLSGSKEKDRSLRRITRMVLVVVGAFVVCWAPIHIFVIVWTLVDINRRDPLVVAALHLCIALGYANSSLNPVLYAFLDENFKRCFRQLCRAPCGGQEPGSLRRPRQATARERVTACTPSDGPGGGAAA

| Structure (SMILES) | Ki (delta opioid receptor) [nM] | Ki (delta opioid receptor; [1]) [nM] | Ki (mu opioid receptor) [µM] | Ki (mu opioid receptor; [2]) [µM] |
| --- | --- | --- | --- | --- |
| Oc1cccc2c1Oc1cc(-c3nnn[nH]3)ccc1C2C1CCNCC1 (stereo not shown) [4r, 9-Piperidin-4-yl-6-(1H-tetrazol-5-yl)-9H-xanthen-4-ol] | 14 | – | – | – |
| C=CCN1CCC(C2c3ccccc3Oc3cc(C(=O)N4CC[C@H](O)C4)ccc32)CC1 (stereo partly drawn) [7n, [9-(1-Allyl-piperidin-4-yl)-9H-xanthen-3-yl]-(3-(S)-hydroxy-pyrrolidin-1-yl)-methanone] | – | 9230 | – | – |
| CC(=O)Nc1ccccc1-c1ccc2c(c1)Sc1c(O)cccc1C2C1CCN(Cc2ccccn2)CC1 (stereo not shown) [19q, N-{2-[5-Hydroxy-9-(1-pyridin-2-ylmethyl-piperidin-4-yl)-9H-thioxanthen-3-yl]-phenyl}-acetamide] | 0.1 | – | – | – |
| CCN(CC)C(=O)c1ccc2c(c1)Oc1ccccc1C2C1CCN(Cc2cccs2)CC1 (stereo not shown) [15a, 9-(1-Thiophen-2-ylmethyl-piperidin-4-yl)-9H-xanthene-3-carboxylic acid diethylamide] | 450 | – | 4.12 | – |
| c1ccc2c(c1)Oc1cc(-c3ccncc3)ccc1C2C1CCN(Cc2ccoc2)CC1 (stereo not shown) [3h, 4-[9-(1-Furan-3-ylmethyl-piperidin-4-yl)-9H-xanthen-3-yl]-pyridine] | 791 | – | 4.26 | – |
| CCN(CC)C(=O)c1ccc2c(c1)Oc1ccccc1C2C1CCN(C)CC1 (stereo not shown) [16a, 9-(1-Methyl-piperidin-4-yl)-9H-xanthene-3-carboxylic acid diethylamide] | 1140 | – | 35.2 | – |
| CCN(CC)C(=O)c1ccc2c(c1)Oc1ccccc1C2C1CCN(CCc2ccccc2)CC1 (stereo not shown) [12a, 9-(1-Phenethyl-piperidin-4-yl)-9H-xanthene-3-carboxylic acid diethylamide] | 3830 | – | 0.976 | – |
| CC(=O)Nc1ccccc1-c1ccc2c(c1)Oc1ccccc1C2C1CCN(Cc2ccccn2)CC1 (stereo not shown) [4g, N-{2-[9-(1-Pyridin-2-ylmethyl-piperidin-4-yl)-9H-xanthen-3-yl]-phenyl}-acetamide] | – | 167 | – | 6.98 |
| COc1cccc2c1Oc1cc(-c3ccncc3)ccc1C2C1CCNCC1 (stereo not shown) [8b, 4-(5-Methoxy-9-piperidin-4-yl-9H-xanthen-3-yl)-pyridine] | – | 619 | – | > 10 |
| O=c1[nH]c(-c2ccc3c(c2)Oc2ccccc2C3C2CCNCC2)no1 (stereo not shown) [2m, 3-(9-Piperidin-4-yl-9H-xanthen-3-yl)-4H-[1,2,4]oxadiazol-5-one] | 634 | – | > 10 | – |
| c1ccc(CCN2CCC(C3c4ccccc4Oc4cc(-c5cccnc5)ccc43)CC2)cc1 (stereo not shown) [8f, 3-[9-(1-Phenethyl-piperidin-4-yl)-9H-xanthen-3-yl]-pyridine] | – | 2990 | – | 0.907 |
| COc1cccc2c1Sc1cc(-c3cccnc3)ccc1C2C1CCNCC1 (stereo not shown) [9q, 3-(5-Methoxy-9-piperidin-4-yl-9H-thioxanthen-3-yl)-pyridine] | 87.8 | – | – | – |
| c1ccc2c(c1)Oc1cc(-c3nnn[nH]3)ccc1C2C1CCNCC1 (stereo not shown) [3l, 4-[3-(1H-Tetrazol-5-yl)-9H-xanthen-9-yl]-piperidine] | – | 768 | – | > 10 |
| Oc1cccc2c1Sc1cc(-c3cccnc3)ccc1C2C1CCN(Cc2ccccn2)CC1 (stereo not shown) [18q, 6-Pyridin-3-yl-9-(1-pyridin-2-ylmethyl-piperidin-4-yl)-9H-thioxanthen-4-ol] | 0.4 | – | – | – |
| c1ccc(CN2CCC(C3c4ccccc4Oc4cc(-c5ccncc5)ccc43)CC2)nc1 (stereo not shown) [4h, 4-[9-(1-Pyridin-2-ylmethyl-piperidin-4-yl)-9H-xanthen-3-yl]-pyridine] | 2640 | – | 2.05 | – |
| CCN(CC)C(=O)c1ccc2c(c1)Oc1ccccc1C2C1CCN(Cc2ccoc2)CC1 (stereo not shown) [9a, 9-(1-Furan-3-ylmethyl-piperidin-4-yl)-9H-xanthene-3-carboxylic acid diethylamide] | 141 | – | 51 | – |
| O=C(c1ccc2c(c1)Oc1ccccc1C2C1CCN(CCc2ccccc2)CC1)N1CC[C@H](O)C1 (stereo partly drawn) [6n, (3-(S)-Hydroxy-pyrrolidin-1-yl)-[9-(1-phenethyl-piperidin-4-yl)-9H-xanthen-3-yl]-methanone] | – | 7050 | – | 3.4 |
| c1ccc2c(c1)Oc1cc(-c3ccncc3)ccc1C2C1CCNCC1 (stereo not shown) [2h, 4-(9-Piperidin-4-yl-9H-xanthen-3-yl)-pyridine] | – | 4530 | – | > 10 |
| Oc1cccc2c1Sc1cc(-c3cccnc3)ccc1C2C1CCNCC1 (stereo not shown) [10q, 9-Piperidin-4-yl-6-pyridin-3-yl-9H-thioxanthen-4-ol] | 0.2 | – | – | – |

| Structure (SMILES) | Ki (delta opioid receptor) [nM] | Ki (delta opioid receptor; [1]) [nM] | Ki (mu opioid receptor) [µM] | Ki (mu opioid receptor; [2]) [µM] |
| --- | --- | --- | --- | --- |
| CC(=O)Nc1ccccc1-c1ccc2c(c1)Sc1c(O)cccc1C2C1CCNCC1 (stereo not shown) [14q, N-[2-(5-Hydroxy-9-piperidin-4-yl-9H-thioxanthen-3-yl)-phenyl]-acetamide] | 0.2 | – | – | – |
| N#Cc1ccc2c(c1)Oc1c(O)cccc1C2C1CCNCC1 (stereo not shown) [5r, 5-Hydroxy-9-piperidin-4-yl-9H-xanthene-3-carbonitrile] | – | 166 | – | – |
| COc1cccc2c1Sc1cc(-c3ccncc3)ccc1C2C1CCNCC1 (stereo not shown) [11q, 4-(5-Methoxy-9-piperidin-4-yl-9H-thioxanthen-3-yl)-pyridine] | 68.1 | – | – | – |
| C=CCN1CCC(C2c3ccc(-c4ccccc4NC(C)=O)cc3Sc3c(O)cccc32)CC1 (stereo not shown) [16q, N-{2-[9-(1-Allyl-piperidin-4-yl)-5-hydroxy-9H-thioxanthen-3-yl]-phenyl}-acetamide] | – | 121 | – | – |
| O=C(c1ccc2c(c1)Oc1ccccc1C2C1CCN(Cc2ccoc2)CC1)N1CC[C@H](O)C1 (stereo partly drawn) [5n, [9-(1-Furan-3-ylmethyl-piperidin-4-yl)-9H-xanthen-3-yl]-(3-(S)-hydroxy-pyrrolidin-1-yl)-methanone] | – | 177 | – | > 10 |
| Oc1cccc2c1Oc1cc(-c3cccnc3)ccc1C2C1CCN(Cc2cccs2)CC1 (stereo not shown) [4i, 6-Pyridin-3-yl-9-(1-thiophen-2-ylmethyl-piperidin-4-yl)-9H-xanthen-4-ol] | 96.7 | – | – | – |
| C=CCN1CCC(C2c3ccc(-c4cccnc4)cc3Oc3c(O)cccc32)CC1 (stereo not shown) [6i, 9-(1-Allyl-piperidin-4-yl)-6-pyridin-3-yl-9H-xanthen-4-ol] | 27.5 | – | – | – |
| Oc1cccc2c1Sc1cc(-c3ccncc3)ccc1C2C1CCN(Cc2ccccn2)CC1 (stereo not shown) [15q, 6-Pyridin-4-yl-9-(1-pyridin-2-ylmethyl-piperidin-4-yl)-9H-thioxanthen-4-ol] | 0.1 | – | – | – |
| CCN(CC)C(=O)c1ccc2c(c1)Oc1ccccc1C2C1CCN(Cc2ncc[nH]2)CC1 (stereo not shown) [13a, 9-[1-(1H-Imidazol-2-ylmethyl)-piperidin-4-yl]-9H-xanthene-3-carboxylic acid diethylamide] | 106 | – | 1.7 | – |
| O=C(c1ccc2c(c1)Oc1ccccc1C2C1CCNCC1)N1CC[C@H](O)C1 (stereo partly drawn) [4n, (3-(S)-Hydroxy-pyrrolidin-1-yl)-(9-piperidin-4-yl-9H-xanthen-3-yl)-methanone] | – | 434 | – | > 10 |
| CC(=O)Nc1ccccc1-c1ccc2c(c1)Oc1ccccc1C2C1CCNCC1 (stereo not shown) [2g, N-[2-(9-Piperidin-4-yl-9H-xanthen-3-yl)-phenyl]-acetamide] | – | 1020 | – | > 10 |
| COc1cccc2c1Oc1cc(-c3ccccc3NC(C)=O)ccc1C2C1CCNCC1 (stereo not shown) [9b, N-[2-(5-Methoxy-9-piperidin-4-yl-9H-xanthen-3-yl)-phenyl]-acetamide] | – | 761 | – | 4.45 |
| CC(=O)Nc1ccccc1-c1ccc2c(c1)Oc1c(O)cccc1C2C1CCN(Cc2cccs2)CC1 (stereo not shown) [6e, N-{2-[5-Hydroxy-9-(1-thiophen-2-ylmethyl-piperidin-4-yl)-9H-xanthen-3-yl]-phenyl}-acetamide] | 0.1 | – | – | – |
| Oc1cccc2c1Sc1cc(-c3ccncc3)ccc1C2C1CCNCC1 (stereo not shown) [12q, 9-Piperidin-4-yl-6-pyridin-4-yl-9H-thioxanthen-4-ol] | 0.7 | – | – | – |
| CCN(CC)C(=N)c1ccc2c(c1)Oc1ccccc1C2C1CCN(Cc2ccoc2)CC1 (stereo not shown) [3p, N,N-Diethyl-9-(1-furan-3-ylmethyl-piperidin-4-yl)-9H-xanthene-3-carboxamidine] | 16.1 | – | – | – |
| CC(=O)Nc1ccccc1-c1ccc2c(c1)Oc1c(O)cccc1C2C1CCN(Cc2ccccn2)CC1 (stereo not shown) [5e, N-{2-[5-Hydroxy-9-(1-pyridin-2-ylmethyl-piperidin-4-yl)-9H-xanthen-3-yl]-phenyl}-acetamide] | 0.1 | – | – | – |
| Oc1cccc2c1Oc1cc(-c3cccnc3)ccc1C2C1CCN(Cc2ccccc2)CC1 (stereo not shown) [5i, 9-(1-Benzyl-piperidin-4-yl)-6-pyridin-3-yl-9H-xanthen-4-ol] | 94 | – | – | – |
| COc1cccc2c1Sc1cc(-c3ccccc3NC(C)=O)ccc1C2C1CCNCC1 (stereo not shown) [13q, N-[2-(5-Methoxy-9-piperidin-4-yl-9H-thioxanthen-3-yl)-phenyl]-acetamide] | – | 110 | – | – |
